Read-outs that look alike come from different tables or passages of the source.
Assays:
[1] = format: in vivo, Rattus norvegicus; details: about 3.4 mg/kg difethialone per os (40% homo-, 60% hetero-stereoisomer, each racemic), mean of six rats
Method: About 0.525 g (±0.025 g) of rat liver is weighed out accurately and placed in a 50 mL polypropylene tube. 10 mL of acetone are added and the suspension is homogenized using an Ultra-Turrax® homogenizer/disperser for a time of about 30 seconds. The homogenizer/disperser shaft is rinsed with hot water and then twice with 20 mL of acetone in a polypropylene tube. The homogenate is centrifuged for 5 minutes at a centrifugation speed of 3000 rpm (revolutions per minute). The supernatant is collected and transferred into a test tube. The sample is subjected to evaporation under a stream of nitrogen (N2) at a temperature of 40° C. so as to form a dry extract.
1 mL of acetonitrile is added to the tube containing the dry extract so as to dissolve it. The acetonitrile solution is washed twice successively with 1 mL of hexane. The lipid-free extract is dried under a stream of nitrogen (N2) at a temperature of 40° C. and is then taken up in 0.5 mL of methanol and dissolved by vortex stirring. 0.5 mL of ultra-pure (Milli-Q) water is then added. The sample is vortex-homogenized.
1 mL of dichloromethane, then 1 mL of methanol, then 1 mL of ultra-pure (Milli-Q) water are passed through an Oasis HLB 1 cc cartridge (WAT094225, Waters). The lipid-free liver extract (1 mL of MeOH/Milli-Q H2O) containing difethialone is then loaded onto the top of the cartridge so that the liver extract penetrates through the cartridge by gravity on contact with the solid phase. 1 mL of washing solution formed from methanol and ultra-pure water in a 90/10 volume proportion is then loaded onto the top of the cartridge. The cartridge is dried by suction under vacuum connected to the bottom of the cartridge. 1 mL of eluting solution formed from dichloromethane and methanol in a 90/10 volume proportion is then loaded onto the top of the cartridge and an eluate comprising difethialone is collected at the bottom of the cartridge. The solvent of the eluate is evaporated off under a stream of nitrogen (N2) at a temperature of 40° C. The sample is taken up in 0.5 mL of acetonitrile and the acetonitrile solution containing difethialone is filtered through a 0.2 μm filter.
The composition is analysed by high-pressure liquid chromatography on a chiral column as described in point A2) above.
A solution of a mixture of homo-stereoisomer (DFN-Homo-SI) and of hetero-stereoisomer (DFN-Hetero-SI) of difethialone in a mixture of vegetable oil and 5% DMSO is administered by tube-feeding (“per os”) to 8-week-old coumaphen-sensitive rats (male and female Rattus norvegicus) weighing about 200 g. The molar proportion of homo-stereoisomer is 40% and the molar proportion of hetero-stereoisomer is 60%. Each configurational stereoisomer of difethialone is formed from a racemic mixture of the two enantiomers of said corresponding configurational stereoisomer.
On D0, a tube-feeding solution is administered to each rat so that the amount of difethialone ingested by each rat is about 3.4 mg per kilogram of rat. To avoid haemorrhage, the rats are also treated daily by subcutaneous administration of a dose of vitamin K1 (as haemorrhage antidote) at a rate of […] per 200 g of live rat weight.
At 4 hours (H+4), 9 hours (H+9), 24 hours (H+24), 120 hours (H+120), 168 hours (H+168) and 216 hours (H+216) after tube-feeding, three male rats and three female rats anaesthetized beforehand with isoflurane are euthanized, the liver of the euthanized rats is removed, the difethialone is then extracted from the liver, the amount of each of the configurational stereoisomers of difethialone is assayed, the area under the peaks in the chromatogram obtained is measured and each configurational stereoisomer is quantified by comparison with a calibration curve. […]

[2] = format: in vivo, Rattus norvegicus; details: 48 hours after tube-feeding; about 3.4 mg/kg difethialone per os (40% homo-, 60% hetero-stereoisomer, each racemic); mean of six rats
[3] = 4 hours after tube-feeding, daily vitamin K1

Row | SMILES | Hepatic content [1, 3] [ng/g] | Hepatic content ([1]; 9 hours after tube-feeding) [ng/g] | Hepatic content ([1]; 24 hours after tube-feeding) [ng/g] | Hepatic content ([1]; 120 hours after tube-feeding) [ng/g] | Hepatic content ([1]; 168 hours after tube-feeding) [ng/g] | Hepatic content ([1]; 216 hours after tube-feeding) [ng/g] | Hepatic content [2] [ng/g]
1 | Oc1c(C2CC(c3ccc(-c4ccc(Br)cc4)cc3)Cc3ccccc32)c(=S)oc2ccccc12 (single isomer, unassigned) [DFN-Homo-dextro, 3-(4′-bromobiphenyl-4-yl)-1-(4-hydroxythiocoumarin-3-yl)-1,2,3,4-tetrahydronaphthalene] | 4566 | 4692.5 | 1243.5 | 192.5 | 129 | 77.5 | 720.5
2 | Oc1c(C2CC(c3ccc(-c4ccc(Br)cc4)cc3)Cc3ccccc32)c(=S)oc2ccccc12 (single isomer, unassigned) [DFN-Hetero-dextro, 3-(4′-bromobiphenyl-4-yl)-1-(4-hydroxythiocoumarin-3-yl)-1,2,3,4-tetrahydronaphthalene] | 10589.5 | 12155.5 | 8102 | 5431.5 | 3011 | 4030.5 | 7974.5
